{
  "source": "patent US20110028401A1",
  "about": "“CRIPTO BLOCKING MOLECULES AND THERAPEUTIC USES THEREOF” (CONSIGLIO NAZIONALE DELLE RICERCHE, priority 2009, published 2011)",
  "key": {"R1 ESC": {"tested_on": "R1 ESC", "experiment": "Dopaminergic differentiation of ESCs on PA6 stromal cells", "format": "cell-based, mouse", "procedure": "For more specific dopaminergic differentiation, R1 ESC were plated on a confluent monolayer of mitomycin-C treated (2 hour, 20 ug/ml, Sigma) stromal PA6 cells (Riken Cell Bank) at a density of 100 cells/cm^2 and differentiated based on the methods of Barberi et al, 2003 with the following modifications, FIG. 7(a)^27. Cells were initially cultured in serum-replacement media (Dulbecco's modified Eagle medium with 15% serum replacement, 2 mM L-glutamine and 10 uM β-mercaptoethanol, Gibco-Invitrogen) containing Noggin (300 ng/ml, R&D Systems). After 5 days the media was replenished and supplemented with Noggin plus morphogens fibroblast growth factor-8 (FGF8, 100 ng/ml) and Sonic Hedgehog (Shh, 500 ng/ml), previously shown to be important in midbrain DA neuron development. At day 8, cultures were changed into N2 media (a 1:1 mixture of F12 and MEM with 15 mM HEPES buffer, 1 mM glutamine, 6 mg/ml glucose (Sigma-Aldrich), 3 mg/ml Albumax and N2 supplement (all purchased from Invitrogen)) supplemented with FGF2 (20 ng/ml), Shh, FGF8 and Wnt5a (previously shown to be important in the differentiation of dopaminergic precursors in vitro and in vivo^25, 56. Finally at day 11, cultures were exposed to survival factors brain derived neurotrophic factor (BDNF, 30 ng/ml), glial derived neurotrophic factor (GDNF, 30 ng/ml) and ascorbic acid (AA, 100 uM). In addition, peptides (Control peptide, CP; Dimer peptide, DP or Cripto Blocking peptide, Cripto BP, 12.5 uM) were added to the cultures from day 1-11. Peptides were replenished in the media every second day.\nHoescht counterstaining was used for visualization of all cells within the cultures. The proportion of neuron containing colonies (labeled for using the immature neuronal marker βIII-tubulin (Tuj1)) and the number of dopaminergic neurons/μm^2 colony (identified using a marker for the precursor enzyme in DA synthesis, TH) were counted. Differentiation experiments were performed in triplicate.\nThe authors next examined whether DA differentiation could be promoted. To this end, the authors used a DA differentiation protocol involving co-culturing on stromal cells^27, to which additional modifications were incorporated (FIG. 7a). In brief, ESCs were plated at low density onto stromal cells (PA6) for a period of 5 days, to promote neural induction. From day 0-8, cultures were treated with noggin to enhance neuronal induction. From day 8-11, cultures where changed into neuronal (N2) media in the presence of Shh and FGF-8 (for ventral midbrain patterning) and basic FGF (to expand the pool of DA precursors), as well as Wnt5a (involved in DA neuron differentiation in vitro and in vivo^25, 43). Control peptide (CP) or Cripto BP (BP) were added to the differentiating ESCs from day 1 to day 11. […]"}, "Parkinsonian rats": {"tested_on": "Parkinsonian rats", "experiment": "TH-ir neuron counts within striatal grafts", "format": "in vivo, rat", "conditions": "tumor-free animals", "procedure": "Two days prior to grafting animals began cyclosporine-A immune suppression (10 mg/kg). Fourteen days post-lesioning selected animals (determined by behavioural rotations) were again anesthetized and stereotaxically injected with 1 μl of cell suspension at each of the 4 sites as previously described^29. Stereotaxic coordinates of 1st & 2nd Injection (from bregma): anterior 0.2 mm, lateral 3.0 mm, ventral 4.5 and 5.0 mm; 3rd & 4th Injection, anterior 1.0 mm, lateral 2.5 mm, ventral 4.5 and 5.0 mm; incisor bar 0 mm^57). ESCs were differentiated as outlined in FIG. 7a. In brief, ESC colonies were dissected away from the stromal feeder layer and dissociated using collagenase/dispase with agitation (700 μg/ml, Roche, for 20 min, 80 rpm). Cells were subsequently resuspended at a density of 3,000 cells/μl ready for grafting. Five rats received Sham injections (4 μl N2 media, 1 μl/site), 16 rats received a total of 12,000 ESCs (4×1 μl grafts) pre-treated with the Control peptide (of which 9 of these animals also received infusion of the Control peptide) and a further 16 rats received grafts pretreated with the Cripto blocking peptide (9 animals receiving infusion of the Cripto BP).\nThe peptide infusion was performed by implantation of a cannula into the striatum (Alzet brain infusion kit) connected to a subcutaneously placed osmotic minipump (Alzet) prefilled with either CP or Cripto BP. […]"}, "[1]": {"conditions": "peptide 12.5 uM day 1-11, 14 days on PA6"}},
  "data": [
    {"compound": "C[S+]([O-])CCC(N)C(=O)N[C@@H](CSCc1ccccc1)C(=O)N[C@@H](CSCc1ccccc1)C(=O)N[C@@H](CCCCNC(=O)[C@H](CSCc1ccccc1)NC(=O)[C@H](CSCc1ccccc1)NC(=O)[C@@H](N)CC[S+](C)[O-])C(=O)N[C@@H](CCCCNC(=O)[C@H](CCCCNC(=O)[C@H](CSCc1ccccc1)NC(=O)[C@H](CSCc1ccccc1)NC(=O)[C@@H](N)CC[S+](C)[O-])NC(=O)[C@H](CSCc1ccccc1)NC(=O)[C@H](CSCc1ccccc1)NC(=O)[C@@H](N)CC[S+](C)[O-])C(=O)NCC(=O)O", "note": "(stereo partly drawn) [Cripto BP]", "values": [
      {"measurement": "yield of DA neurons derived from wildtype ESCs", "setting": "R1 ESC; Noggin and Wnt5a in conjunction with Cripto BP", "result": "enhanced further"},
      {"measurement": "DA neurons per TH-ir colony", "setting": "R1 ESC; peptide 12.5 uM day 1-11", "result": 286, "unit": "% greater than control"},
      {"measurement": "colonies immunoreactive for βIII-tubulin", "setting": "R1 ESC; [1]", "result": 91, "unit": "%"},
      {"measurement": "proportion of colonies containing TH-ir DA neurons", "setting": "R1 ESC; [1]", "result": 62, "unit": "%"},
      {"measurement": "TH+ cell counts within the graft", "setting": "Parkinsonian rats; pre-treated ESCs + peptide infusion", "result": "10815±887"},
      {"measurement": "TH+ cells within the graft", "setting": "Parkinsonian rats; pre-treated ESCs without infusion", "result": "7491±1488"}
    ]}
  ]
}
